Assay results published in ChEMBL document CHEMBL4725222, “Advances in the Development of Phosphodiesterase-4 Inhibitors” (J Med Chem, 2020).
Blank lines part the entries; values can stand above or below the compound they belong to.

Tests used:
Phosphodiesterase 4 [1] = biological target: T1, Phosphodiesterase 4 (Homo sapiens, UniProt P27815+Q08499+Q07343+Q08493); assay: Inhibition of human U937 cell derived PDE4 using [3H]cAMP as substrate incubated for 60 mins by Scintillation proximity assay; assay type: protein assay
[2] = Inhibition of recombinant human His-tagged PDE7 expressed in baculovirus infected in sf9 cells incubated for 60 mins by Scintillation counting method
[3] = biological target: T2, 3',5'-cyclic-AMP phosphodiesterase 4B (Homo sapiens, UniProt Q07343); assay: Inhibition of N-terminal GST tagged full length human PDE4B2 expressed in baculovirus infected Sf9 cell expression system using cAMP as substrate incubated for 60 mins by time-resolved fluorescence competitive immunoassay
T2 sequence (Q07343 whole entry): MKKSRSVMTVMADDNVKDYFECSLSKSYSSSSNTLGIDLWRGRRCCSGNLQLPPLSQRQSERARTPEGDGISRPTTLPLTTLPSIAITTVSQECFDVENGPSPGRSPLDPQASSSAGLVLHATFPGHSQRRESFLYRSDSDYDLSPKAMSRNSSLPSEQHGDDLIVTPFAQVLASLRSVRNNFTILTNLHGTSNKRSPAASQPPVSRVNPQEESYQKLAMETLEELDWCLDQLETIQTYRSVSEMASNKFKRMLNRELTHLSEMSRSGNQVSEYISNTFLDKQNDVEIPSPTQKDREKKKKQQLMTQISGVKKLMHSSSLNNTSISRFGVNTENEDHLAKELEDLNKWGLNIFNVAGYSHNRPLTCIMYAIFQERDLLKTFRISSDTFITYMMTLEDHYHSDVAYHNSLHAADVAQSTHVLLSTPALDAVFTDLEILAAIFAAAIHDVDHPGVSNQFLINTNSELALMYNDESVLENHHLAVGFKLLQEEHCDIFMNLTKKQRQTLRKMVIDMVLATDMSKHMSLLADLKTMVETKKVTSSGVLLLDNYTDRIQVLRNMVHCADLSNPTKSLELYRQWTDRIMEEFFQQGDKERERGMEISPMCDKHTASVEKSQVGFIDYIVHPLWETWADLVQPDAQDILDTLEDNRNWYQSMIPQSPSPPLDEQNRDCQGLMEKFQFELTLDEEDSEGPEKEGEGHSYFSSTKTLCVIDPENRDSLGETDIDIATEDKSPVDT

[4] = biological target: 3',5'-cyclic-AMP phosphodiesterase 4C (Homo sapiens, UniProt Q08493); assay: Inhibition of N-terminal GST tagged full length human PDE4C1 expressed in baculovirus infected Sf9 cell expression system using cAMP as substrate incubated for 60 mins by time-resolved fluorescence competitive immunoassay
Chain of 3',5'-cyclic-AMP phosphodiesterase 4C (Q08493 whole entry): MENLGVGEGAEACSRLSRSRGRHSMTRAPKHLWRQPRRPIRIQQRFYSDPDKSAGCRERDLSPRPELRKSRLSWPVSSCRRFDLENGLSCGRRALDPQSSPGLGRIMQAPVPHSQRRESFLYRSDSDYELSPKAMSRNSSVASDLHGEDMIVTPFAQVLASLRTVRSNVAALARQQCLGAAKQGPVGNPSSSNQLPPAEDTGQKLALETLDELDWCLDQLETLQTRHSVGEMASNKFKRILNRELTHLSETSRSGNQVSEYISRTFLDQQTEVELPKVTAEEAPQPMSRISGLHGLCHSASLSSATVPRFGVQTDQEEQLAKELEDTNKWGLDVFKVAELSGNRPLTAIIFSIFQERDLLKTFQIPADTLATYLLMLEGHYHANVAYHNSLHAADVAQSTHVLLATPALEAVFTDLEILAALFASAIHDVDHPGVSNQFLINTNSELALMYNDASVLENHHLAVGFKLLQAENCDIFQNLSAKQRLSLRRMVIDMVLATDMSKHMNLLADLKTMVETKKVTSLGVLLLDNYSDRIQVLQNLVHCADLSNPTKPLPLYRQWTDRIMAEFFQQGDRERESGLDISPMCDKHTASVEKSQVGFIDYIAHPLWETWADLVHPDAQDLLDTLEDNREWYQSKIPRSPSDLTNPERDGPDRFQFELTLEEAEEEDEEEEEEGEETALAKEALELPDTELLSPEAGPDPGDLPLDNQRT

Phosphodiesterase 4 [5] = biological target: T1, Phosphodiesterase 4; assay: Inhibition of cytosolic PDE4 in human PMNL using [3H]cAMP as substrate by liquid scintillation counting method
[6] = Antiinflammatory activity in human nasal polyp cells assessed as reduction in TNFalpha release incubated for 30 mins followed by anti-IgE stimulation and measured after 18 hrs by ELISA; assay type: functional, cell-based; settings: Nasal polyp cell
[7] = biological target: T3, 3',5'-cyclic-AMP phosphodiesterase 4A (Homo sapiens, UniProt P27815); assay: Inhibition of PDE4A (unknown origin) at 2 uM relative to control
T3 sequence (P27815 whole entry): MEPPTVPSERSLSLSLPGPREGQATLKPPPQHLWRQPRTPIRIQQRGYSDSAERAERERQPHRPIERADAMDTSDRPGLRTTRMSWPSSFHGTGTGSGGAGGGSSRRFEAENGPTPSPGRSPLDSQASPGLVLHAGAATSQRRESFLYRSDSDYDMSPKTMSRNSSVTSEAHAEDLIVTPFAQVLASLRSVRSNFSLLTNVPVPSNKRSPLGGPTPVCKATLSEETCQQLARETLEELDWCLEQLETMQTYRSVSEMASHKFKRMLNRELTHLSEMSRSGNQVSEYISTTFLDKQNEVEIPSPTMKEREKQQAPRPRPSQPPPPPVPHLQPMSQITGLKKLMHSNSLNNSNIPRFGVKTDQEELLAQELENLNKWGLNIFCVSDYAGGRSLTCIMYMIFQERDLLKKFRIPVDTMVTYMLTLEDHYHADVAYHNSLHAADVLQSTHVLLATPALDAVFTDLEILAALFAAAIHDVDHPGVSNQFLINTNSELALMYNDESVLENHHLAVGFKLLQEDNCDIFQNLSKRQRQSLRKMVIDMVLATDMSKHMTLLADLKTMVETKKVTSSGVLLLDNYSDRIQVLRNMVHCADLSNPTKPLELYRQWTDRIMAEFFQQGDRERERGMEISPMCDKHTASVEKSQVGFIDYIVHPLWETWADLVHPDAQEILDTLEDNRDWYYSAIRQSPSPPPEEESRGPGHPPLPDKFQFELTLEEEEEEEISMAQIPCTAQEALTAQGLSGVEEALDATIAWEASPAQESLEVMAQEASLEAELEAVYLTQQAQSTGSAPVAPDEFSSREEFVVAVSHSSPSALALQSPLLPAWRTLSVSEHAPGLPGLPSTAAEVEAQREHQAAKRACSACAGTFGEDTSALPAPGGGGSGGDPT

[8] = biological target: T2, 3',5'-cyclic-AMP phosphodiesterase 4B; assay: Inhibition of PDE4B (unknown origin) at 2 uM relative to control
[9] = biological target: T4, 3',5'-cyclic-AMP phosphodiesterase 4D (Homo sapiens, UniProt Q08499); assay: Inhibition of PDE4D (unknown origin) at 2 uM relative to control
T4 sequence (Q08499 whole entry): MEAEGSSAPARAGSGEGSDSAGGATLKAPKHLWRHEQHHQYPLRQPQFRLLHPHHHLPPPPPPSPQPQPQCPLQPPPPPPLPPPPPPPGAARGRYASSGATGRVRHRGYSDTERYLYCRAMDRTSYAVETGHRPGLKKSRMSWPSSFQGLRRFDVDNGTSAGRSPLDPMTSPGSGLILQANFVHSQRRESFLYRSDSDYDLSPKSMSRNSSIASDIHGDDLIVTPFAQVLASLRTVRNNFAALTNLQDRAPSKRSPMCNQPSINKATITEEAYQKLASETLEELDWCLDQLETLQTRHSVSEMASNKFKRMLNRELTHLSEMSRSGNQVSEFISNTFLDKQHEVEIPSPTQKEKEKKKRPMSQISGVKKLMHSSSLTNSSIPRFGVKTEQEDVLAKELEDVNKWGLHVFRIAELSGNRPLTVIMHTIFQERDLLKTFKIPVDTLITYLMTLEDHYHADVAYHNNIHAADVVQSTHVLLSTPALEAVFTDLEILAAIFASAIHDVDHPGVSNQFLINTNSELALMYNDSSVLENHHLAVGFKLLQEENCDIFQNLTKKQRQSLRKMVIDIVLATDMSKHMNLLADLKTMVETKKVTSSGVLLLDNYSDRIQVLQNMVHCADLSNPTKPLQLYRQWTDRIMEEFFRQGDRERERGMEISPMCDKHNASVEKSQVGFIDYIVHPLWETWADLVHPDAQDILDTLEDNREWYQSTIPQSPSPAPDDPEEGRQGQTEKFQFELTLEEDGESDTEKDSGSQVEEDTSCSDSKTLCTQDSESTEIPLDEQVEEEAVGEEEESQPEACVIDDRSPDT

[10] = biological target: High affinity 3',5'-cyclic-AMP phosphodiesterase 7A (Homo sapiens, UniProt Q13946); assay: Inhibition of human PDE7A at 2 uM relative to control
Chain of High affinity 3',5'-cyclic-AMP phosphodiesterase 7A (Q13946 whole entry): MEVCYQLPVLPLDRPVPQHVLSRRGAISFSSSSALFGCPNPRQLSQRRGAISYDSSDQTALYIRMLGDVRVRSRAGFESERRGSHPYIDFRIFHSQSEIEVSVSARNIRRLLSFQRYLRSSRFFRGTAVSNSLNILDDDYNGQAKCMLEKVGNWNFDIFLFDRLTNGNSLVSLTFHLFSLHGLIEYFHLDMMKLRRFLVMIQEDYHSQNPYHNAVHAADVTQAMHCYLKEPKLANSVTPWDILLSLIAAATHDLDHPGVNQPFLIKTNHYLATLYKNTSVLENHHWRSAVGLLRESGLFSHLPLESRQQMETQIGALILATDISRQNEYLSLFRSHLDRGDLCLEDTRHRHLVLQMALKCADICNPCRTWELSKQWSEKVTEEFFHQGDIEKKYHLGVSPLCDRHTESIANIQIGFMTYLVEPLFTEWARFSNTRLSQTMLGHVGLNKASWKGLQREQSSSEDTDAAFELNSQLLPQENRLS

[11] = biological target: T2, 3',5'-cyclic-AMP phosphodiesterase 4B; assay: Inhibition of recombinant human PDE4B expressed in Sf9 cells by IMAP phosphodiesterase assay
Phosphodiesterase 4 [12] = biological target: T1, Phosphodiesterase 4; assay: Inhibition of human PDE4 using [3H]cAMP as substrate incubated for 30 mins; assay type: protein assay
[13] = Inhibition of bovine aorta cytosolic PDE4 using cyclic AMP as substrate by liquid scintillation counting; set-up: species or system Bos taurus
Phosphodiesterase 4 [14] = biological target: T1, Phosphodiesterase 4; assay: Inhibition of human neutrophil derived PDE4; assay type: protein assay
[15] = Inhibition of human platelet derived PDE3
Phosphodiesterase 4 [16] = biological target: T1, Phosphodiesterase 4; assay: Inhibition of PDE4 (unknown origin); assay type: protein assay
[17] = biological target: T4, 3',5'-cyclic-AMP phosphodiesterase 4D; assay: Inhibition of PDE4D3 (unknown origin)
[18] = Inhibition of guinea-pig platelet derived PDE3; set-up: species or system Cavia porcellus
[19] = Inhibition of guinea-pig neutrophil derived PDE4; set-up: species or system Cavia porcellus
Phosphodiesterase 4 [20] = biological target: T1, Phosphodiesterase 4; assay: Inhibition of PDE4 in human U937 cell lysate using cAMP as substrate by LANCE assay; assay type: subcellular; settings: u-937
[21] = Inhibition of TNFalpha in mouse model of sepsis; assay type: functional
[22] = biological target: T2, 3',5'-cyclic-AMP phosphodiesterase 4B; assay: Inhibition of recombinant human PDE4B2 preincubated for 30 mins followed by [3H]cyclic AMP addition and measured after 20 mins by radiometric assay
[23] = biological target: T2, 3',5'-cyclic-AMP phosphodiesterase 4B; assay: Inhibition of PDE4B (unknown origin)
[24] = biological target: Mitogen-activated protein kinase 14 (Homo sapiens, UniProt Q16539); assay: Inhibition of P38 alpha MAPK (unknown origin)
Chain of Mitogen-activated protein kinase 14 (Q16539 whole entry): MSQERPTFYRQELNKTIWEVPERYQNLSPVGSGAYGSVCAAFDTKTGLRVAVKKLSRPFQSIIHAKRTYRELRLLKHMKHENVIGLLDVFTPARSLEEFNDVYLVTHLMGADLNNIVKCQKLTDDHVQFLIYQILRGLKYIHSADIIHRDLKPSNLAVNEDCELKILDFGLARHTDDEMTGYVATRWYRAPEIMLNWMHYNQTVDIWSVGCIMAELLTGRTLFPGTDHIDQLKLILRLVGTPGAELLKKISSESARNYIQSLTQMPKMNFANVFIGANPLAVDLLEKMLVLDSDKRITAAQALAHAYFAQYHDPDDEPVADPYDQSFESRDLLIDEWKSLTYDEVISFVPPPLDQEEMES

[25] = biological target: Mitogen-activated protein kinase 10 (Homo sapiens, UniProt P53779); assay: Inhibition of JNK3 (unknown origin)
Chain of Mitogen-activated protein kinase 10 (P53779 whole entry): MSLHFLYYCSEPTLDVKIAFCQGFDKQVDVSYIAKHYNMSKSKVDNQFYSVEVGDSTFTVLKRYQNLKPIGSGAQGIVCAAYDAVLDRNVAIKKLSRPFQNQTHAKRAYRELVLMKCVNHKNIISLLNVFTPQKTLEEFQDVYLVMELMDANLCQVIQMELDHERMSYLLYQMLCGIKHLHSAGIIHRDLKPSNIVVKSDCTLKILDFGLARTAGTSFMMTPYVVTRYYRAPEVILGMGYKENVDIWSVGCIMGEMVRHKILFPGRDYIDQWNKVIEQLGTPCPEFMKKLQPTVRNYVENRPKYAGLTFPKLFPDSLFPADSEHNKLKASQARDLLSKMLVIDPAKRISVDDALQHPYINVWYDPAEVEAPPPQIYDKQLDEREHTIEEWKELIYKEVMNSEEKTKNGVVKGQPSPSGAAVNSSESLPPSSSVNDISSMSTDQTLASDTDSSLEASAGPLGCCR

[26] = biological target: T4, 3',5'-cyclic-AMP phosphodiesterase 4D; assay: Inhibition of PDE4D (unknown origin)
[27] = biological target: T3, 3',5'-cyclic-AMP phosphodiesterase 4A; assay: Inhibition of PDE4A (unknown origin)
[28] = biological target: T4, 3',5'-cyclic-AMP phosphodiesterase 4D; assay: Inhibition of human PDE4D2 catalytic domain (86 to 413 residues) expressed in Escherichia coli BL21 cells using 3H-cGMP or 3H-cAMP as substrate by liquid scintillation counting method

Structure (SMILES): O=C(C(=O)c1cn(Cc2ccc(F)cc2)c2ccc(O)cc12)c1c(Cl)cncc1Cl
IC50 (Phosphodiesterase 4 [5]): 9.7 nM | EC50 [6]: 110 nM

Structure (SMILES): COc1ccc(C2=NN(CCCCCc3ccccc3)C(=O)CC2)cc1OC
IC50 [11]: 0.9 nM

Structure (SMILES): COc1ccc(C2=CNC(=O)N(Cc3nc4cccc(C#N)c4o3)C2)cc1OC1CCCC1
IC50 (Phosphodiesterase 4 [12]): 12 nM

Structure (SMILES): CCOc1cc2c(cc1OCC)C(c1ccc(CCCN3CCN(c4ccc(Cl)cc4)CC3)cc1)=NCC(=O)N2
IC50 [13]: 40 nM

Structure (SMILES): O=C(NC1CC1)c1cn(-c2cccc(-c3ccc([C@@H]4C[C@H]4C(=O)O)c(F)c3)c2)c2ncccc2c1=O
IC50 (Phosphodiesterase 4 [16]): 0.6 nM

Structure (SMILES): COc1cc2c(cc1OC)[C@@H]1CN(C)CC[C@@H]1N=C2c1ccc(NC(C)=O)cc1 [BENAFENTRINE]
IC50 [18]: 1740 nM | IC50 [19]: 1760 nM

Structure (SMILES): CS(=O)(=O)Nc1ccc(C(=O)O[C@@H](Cc2c(Cl)c[n+]([O-])cc2Cl)c2ccc(OC(F)F)c(OCC3CC3)c2)cc1OCC1CC1
IC50 (Phosphodiesterase 4 [20]): 0.026 nM

Structure (SMILES): O=C(Nc1c(Cl)c[n+]([O-])cc1Cl)c1ccc(OC(F)F)c2oc3ccncc3c12
IC50 (Phosphodiesterase 4 [16]): 3 nM

Structure (SMILES): NS(=O)(=O)c1cccc(-c2c(-c3ccccc3)nc(C(F)(F)F)nc2N2CCOCC2)c1
IC50 (Phosphodiesterase 4 [16]): 7 nM | EC50 [21]: 0.01 mg/kg

Structure (SMILES): Cn1nc(C(=O)NC2CCC(NC(=O)c3cc(F)cnc3Oc3cccc(-c4ccc(CCCN5CCNCC5)cc4)c3)CC2)cc1C(F)(F)F (centres undefined)
IC50 [22]: 0.01 nM

Structure (SMILES): COc1ccc([C@@]2(c3cccc(OC)c3)c3cc(O)ccc3-c3ccc(C=O)c(C#Cc4ccc(O)cc4)c32)cc1
IC50 [28]: 11 nM

The next lines start with the values.

IC50 (Phosphodiesterase 4 [1]): 2900 nM | IC50 [2]: 1400 nM
Structure (SMILES): CCOc1ccc(-c2c(C(C)(C)O)oc(=O)c3ccccc23)cc1OC1CCCC1

IC50 [3]: 3 nM | IC50 [4]: 3 nM
Structure (SMILES): CCOc1cc([C@H](CS(C)(=O)=O)N2C(=O)c3cccc(NC(=O)OCCOCCOCCOCCOCCOCCOC)c3C2=O)ccc1OC

inhibition [7]: 64% | inhibition [8]: 64% | inhibition [9]: 64% | inhibition [10]: 98%
Structure (SMILES): Cc1c(C(=O)Nc2ccc(F)cc2F)sc2ncnc(N3CCN(C)CC3)c12

IC50 [3]: 3 nM | IC50 [4]: 3 nM
Structure (SMILES): CCOc1cc([C@H](CS(C)(=O)=O)N2C(=O)c3cccc(NC(=O)OCCOCCOCCOCCOCCOCCOCCOCCOC)c3C2=O)ccc1OC

IC50 (Phosphodiesterase 4 [14]): 7 nM | IC50 [15]: 28 nM
Structure (SMILES): CCOc1cc2c(cc1OC)C(c1ccc(C(=O)N(C(C)C)C(C)C)cc1)=N[C@@H]1CCN(C)C[C@H]21 [PUMAFENTRINE]

IC50 [17]: 390 nM
Structure (SMILES): CCOC(=O)c1cnc2c(cnn2CC)c1NN=C(C)C [ETAZOLATE]

IC50 [22]: 0.126 nM
Structure (SMILES): O=C(N[C@H]1CC[C@@H](C2C(=O)c3cc(F)cnc3N(C3CCSCC3)C2=O)CC1)c1cn2cc(F)ccc2n1 (some centres undefined)

IC50 (Phosphodiesterase 4 [16]): 74 nM
Structure (SMILES): CCOc1ccc(-c2nc(-c3cccc(C(=O)O)n3)cs2)cc1OCC [TETOMILAST]

IC50 [23]: 200 nM | IC50 [24]: 500 nM | IC50 [25]: 700 nM
Structure (SMILES): CC(=O)Nc1ccc(-c2c(-c3ccc(F)cc3)nc([S+](C)[O-])n2C)cn1 (centres undefined)

IC50 [3]: 3 nM | IC50 [4]: 3 nM
Structure (SMILES): CCOc1cc([C@H](CS(C)(=O)=O)N2C(=O)c3cccc(NC(=O)OCCOCCOCCOCCOCCOC)c3C2=O)ccc1OC

IC50 [3]: 3 nM | IC50 [4]: 3 nM
Structure (SMILES): CCOc1cc([C@H](CS(C)(=O)=O)N2C(=O)c3cccc(NC(=O)OCCOCCOCCOCCOC)c3C2=O)ccc1OC

IC50 [23]: 0.38 nM | IC50 [26]: 0.38 nM | IC50 [27]: 0.38 nM
Structure (SMILES): Cc1ccc(O)c(C(=O)N[C@H]2CC[C@@H](NC(=O)c3cc(F)cnc3Oc3ccc(F)c(F)c3)CC2)c1 [UK-500001]
